Measurements published in patent publication US9149038B2, “4-amino-6-(heterocyclic)picolinates and 6-amino-2-(heterocyclic)pyrimidine-4-carboxylates and their use as herbicides” (Dow AgroSciences LLC, priority 2013, dated 2015).
Read-outs that look alike come from different tables or passages of the source.

Assays:
[1] = test system: Key Broadleaf Weed and Crop Species; experiment: Post-Emergent Test II: postemergent herbicidal activity, visual rating after 14 d (Table 7); assay type: in vivo; conditions: post-emergence, 336 h; for pest or weed control at 35 g/ha: 35 g ai/ha; for pest or weed control at 70 g/ha: 70 g ai/ha; for pest or weed control at 140 g/ha: 140 g ai/ha
Procedure, shortened: (§1)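 Plants were raised in a greenhouse for 7-21 d and treated once at the first or second true leaf stage. Compounds, dissolved in 97:3 acetone:DMSO then diluted into an aqueous acetone/isopropanol/crop oil/Triton X-155 carrier, were applied by overhead track sprayer at 187 L/ha. After 14 d with subirrigation, injury was scored visually from 0 (none) to 100 (complete kill).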

[2] = test system: Key Grass and Sedge Weeds as well as Grass Crops; experiment: Post-Emergent Test II: postemergent herbicidal activity, visual rating after 14 d (Table 8); assay type: in vivo; conditions: post-emergence, 336 h; for pest or weed control at 35 g/ha: 35 g ai/ha; for pest or weed control at 70 g/ha: 70 g ai/ha; for pest or weed control at 140 g/ha: 140 g ai/ha
Procedure, shortened: as §1

[3] = ABUTH: velvetleaf (Abutilon theophrasti), read-out: Visual Growth Reduction (%) 14 Days After Application ABUTH
[4] = AMARE: redroot pigweed (Amaranthus retroflexus), read-out: Visual Growth Reduction (%) 14 Days After Application AMARE
[5] = BRSNN: oilseed rape, canola (Brassica napus), read-out: Visual Growth Reduction (%) 14 Days After Application BRSNN
[6] = CHEAL: lambsquarters (Chenopodium album), read-out: Visual Growth Reduction (%) 14 Days After Application CHEAL
[7] = EPHHL: wild poinsettia (Euphorbia heterophylla), read-out: Visual Growth Reduction (%) 14 Days After Application EPHHL
[8] = HELAN: sunflower (Helianthus annuus), read-out: Visual Growth Reduction (%) 14 Days After Application HELAN
[9] = barnyardgrass (Echinochloa crus-galli), read-out: Visual Growth Reduction (%) 14 Days After Application, ECHCG
[10] = giant foxtail (Setaria faberi), read-out: Visual Growth Reduction (%) 14 Days After Application, SETFA
[11] = maize, corn (Zea mays), read-out: Visual Growth Reduction (%) 14 Days After Application, ZEAMX
[12] = rice (Oryza sativa), read-out: Visual Growth Reduction (%) 14 Days After Application, ORYSA
[13] = wheat, spring (Triticum aestivum), read-out: Visual Growth Reduction (%) 14 Days After Application, TRZAS
[14] = yellow nutsedge (Cyperus esculentus), read-out: Visual Growth Reduction (%) 14 Days After Application, CYPES

## COC(=O)c1nc(-c2ccc3c(c2)COC3)c(F)c(N)c1Cl [Compound 103, Methyl 4-amino-3-chloro-6-(1,3-dihydroisobenzofuran-5-yl)-5-fluoropicolinate]
[1]; [3]
  pest or weed control at 35 g/ha: 0 to 29%
  pest or weed control at 70 g/ha: 0 to 29%
  pest or weed control at 140 g/ha: 0 to 29%
[1]; [4]
  pest or weed control at 35 g/ha: 0 to 29%
  pest or weed control at 70 g/ha: 0 to 29%
  pest or weed control at 140 g/ha: 0 to 29%
[1]; [5]
  pest or weed control at 35 g/ha: 0 to 29%
  pest or weed control at 70 g/ha: 0 to 29%
  pest or weed control at 140 g/ha: 0 to 29%
[1]; [6]
  pest or weed control at 35 g/ha: 45 to 59%
  pest or weed control at 70 g/ha: 85 to 94%
  pest or weed control at 140 g/ha: 95 to 100%
[1]; [7]
  pest or weed control at 35 g/ha: 0 to 29%
  pest or weed control at 70 g/ha: 0 to 29%
  pest or weed control at 140 g/ha: 0 to 29%
[1]; [8]
  pest or weed control at 35 g/ha: 75 to 84%
  pest or weed control at 70 g/ha: 75 to 84%
  pest or weed control at 140 g/ha: 75 to 84%
[2]; [9]
  pest or weed control at 35 g/ha: 0 to 29%
  pest or weed control at 70 g/ha: 0 to 29%
  pest or weed control at 140 g/ha: 0 to 29%
[2]; [10]
  pest or weed control at 35 g/ha: 0 to 29%
  pest or weed control at 70 g/ha: 0 to 29%
  pest or weed control at 140 g/ha: 0 to 29%
[2]; [11]
  pest or weed control at 35 g/ha: 0 to 29%
  pest or weed control at 70 g/ha: 0 to 29%
  pest or weed control at 140 g/ha: 0 to 29%
[2]; [12]
  pest or weed control at 35 g/ha: 0 to 29%
  pest or weed control at 70 g/ha: 0 to 29%
  pest or weed control at 140 g/ha: 0 to 29%
[2]; [13]
  pest or weed control at 35 g/ha: 0 to 29%
  pest or weed control at 70 g/ha: 0 to 29%
  pest or weed control at 140 g/ha: 0 to 29%
[2]; [14]
  pest or weed control at 35 g/ha: 0 to 29%
  pest or weed control at 70 g/ha: 0 to 29%
  pest or weed control at 140 g/ha: 0 to 29%
